Laboratory results reported in the NIST ThermoML archive (doi:10.1016/j.jct.2016.07.032).
Numbers after ± are expanded uncertainties.

Assays:
[1] = xn = mol fraction of the nth substance listed; details: 101.3 kPa, Liquid, x2 = 0; for speed of sound: Frequency=3 MHz, Sing-around technique in a fixed-path interferometer; for mass density: Vibrating tube method
[2] = refractive index (Na D-line) (dimensionless); xn = mol fraction of the nth substance listed; details: 101.3 kPa, Liquid, Standard Abbe refractometry, x2 = 0
[3] = 101.3 kPa, Liquid; for speed of sound: Frequency=3 MHz, Sing-around technique in a fixed-path interferometer; for mass density: Vibrating tube method
[4] = refractive index (Na D-line) (dimensionless); details: 101.3 kPa, Liquid, Standard Abbe refractometry

| speed of sound ([1]; 298 K) [m/s] | mass density ([1]; 298 K) [kg/m3] | speed of sound ([1]; 303 K) [m/s] | mass density ([1]; 303 K) [kg/m3] | speed of sound ([1]; 308 K) [m/s] | mass density ([1]; 308 K) [kg/m3] | refractive index ([2]; 298 K) | refractive index ([2]; 303 K) | refractive index ([2]; 308 K) | speed of sound ([3]; 298 K) [m/s] | mass density ([3]; 298 K) [kg/m3] | speed of sound ([3]; 303 K) [m/s] | mass density ([3]; 303 K) [kg/m3] | speed of sound ([3]; 308 K) [m/s] | mass density ([3]; 308 K) [kg/m3] | refractive index ([4]; 298 K) | refractive index ([4]; 303 K) | refractive index ([4]; 308 K) | Structure (SMILES) |
| --- | --- | --- | --- | --- | --- | --- | --- | --- | --- | --- | --- | --- | --- | --- | --- | --- | --- | --- |
| – | – | – | – | – | – | – | – | – | 1457 ± 2 | 944 ± 2 | 1437 ± 2 | 939 ± 2 | 1420 ± 2 | 935 ± 2 | 1.429 ± 0.002 | 1.427 ± 0.002 | 1.425 ± 0.002 | CN(C)C=O [dimethylformamide] |
| 1546 ± 2 | 1026 ± 2 | 1526 ± 2 | 1022 ± 2 | 1507 ± 2 | 1018 ± 2 | 1.467 ± 0.002 | 1.466 ± 0.002 | 1.464 ± 0.002 | – | – | – | – | – | – | – | – | – | CN1CCCC1=O [N-methylpyrrolidone] + CCOc1ccccc1 |
| 1457 ± 2 | 944 ± 2 | 1437 ± 2 | 939 ± 2 | 1420 ± 2 | 935 ± 2 | 1.429 ± 0.002 | 1.427 ± 0.002 | 1.425 ± 0.002 | – | – | – | – | – | – | – | – | – | CN(C)C=O [dimethylformamide] + CCOc1ccccc1 |

Continued, compound first:

| Structure (SMILES) | speed of sound ([1]; 298 K) [m/s] | mass density ([1]; 298 K) [kg/m3] | speed of sound ([1]; 303 K) [m/s] | mass density ([1]; 303 K) [kg/m3] | speed of sound ([1]; 308 K) [m/s] | mass density ([1]; 308 K) [kg/m3] | refractive index ([2]; 298 K) | refractive index ([2]; 303 K) | refractive index ([2]; 308 K) | speed of sound ([3]; 298 K) [m/s] | mass density ([3]; 298 K) [kg/m3] | speed of sound ([3]; 303 K) [m/s] | mass density ([3]; 303 K) [kg/m3] | speed of sound ([3]; 308 K) [m/s] | mass density ([3]; 308 K) [kg/m3] | refractive index ([4]; 298 K) | refractive index ([4]; 303 K) | refractive index ([4]; 308 K) |
| --- | --- | --- | --- | --- | --- | --- | --- | --- | --- | --- | --- | --- | --- | --- | --- | --- | --- | --- |
| C1CCOC1 [tetrahydrofuran] + CCOc1ccccc1 | 1278 ± 2 | 882 ± 2 | 1254 ± 2 | 878 ± 2 | 1230 ± 2 | 874 ± 2 | 1.405 ± 0.002 | 1.403 ± 0.002 | 1.4 ± 0.002 | – | – | – | – | – | – | – | – | – |
| CN1CCCC1=O [N-methylpyrrolidone] | – | – | – | – | – | – | – | – | – | 1546 ± 2 | 1026 ± 2 | 1526 ± 2 | 1022 ± 2 | 1507 ± 2 | 1018 ± 2 | 1.467 ± 0.002 | 1.466 ± 0.002 | 1.464 ± 0.002 |
| CCOc1ccccc1 [ethoxybenzene] | – | – | – | – | – | – | – | – | – | 1369 ± 2 | 960 ± 2 | 1349 ± 2 | 955 ± 2 | 1329 ± 2 | 951 ± 2 | 1.505 ± 0.002 | 1.503 ± 0.002 | 1.499 ± 0.002 |
| C1CCOC1 [tetrahydrofuran] | – | – | – | – | – | – | – | – | – | 1278 ± 2 | 882 ± 2 | 1254 ± 2 | 878 ± 2 | 1230 ± 2 | 874 ± 2 | 1.405 ± 0.002 | 1.403 ± 0.002 | 1.4 ± 0.002 |
